From ChEMBL document CHEMBL3425446, “Isolation, semi-synthesis and bio-evaluation of spatane derivatives from the brown algae Stoechospermum marginatum” (Bioorg Med Chem Lett, 2015)
In brackets after ≈: the same amount, converted by molar mass. Activity calls are given as the source filed them. The rule behind the calls is not given here.

Tests used:
[1] = Cytotoxicity against human HL60 cells assessed as decrease in cell number after 24 hrs by MTT assay; format: functional, cell-based; conditions: HL-60, 24 h
Micrococcus luteus [2] = assay: Antibacterial activity against Micrococcus luteus assessed as growth inhibition at 0.5 mg/ml after 24 hrs by well diffusion method; format: functional; conditions: read-out: DIZ
[3] = Cytotoxicity against mouse B16F10 cells assessed as decrease in cell number after 24 hrs by MTT assay; format: functional, cell-based; conditions: B16-F10, 24 h
THP-1 = assay: Cytotoxicity against human THP1 cells assessed as decrease in cell number after 24 hrs by MTT assay; format: functional, cell-based; conditions: THP-1, 24 h
Escherichia coli [4] = assay: Antibacterial activity against Escherichia coli assessed as growth inhibition at 0.5 mg/ml after 24 hrs by well diffusion method; format: functional; conditions: read-out: DIZ
[5] = Cytotoxicity against human U937 cells assessed as decrease in cell number after 24 hrs by MTT assay; format: functional, cell-based; conditions: U-937, 24 h
Micrococcus luteus [6] = assay: Antibacterial activity against Micrococcus luteus assessed as compound concentration required to complete growth inhibition at 8 hrs by tube dilution method; format: functional
COLO 205 [7] = assay: Cytotoxicity against human COLO205 cells assessed as decrease in cell number after 24 hrs by MTT assay; format: functional, cell-based; conditions: COLO 205, 24 h
Klebsiella pneumoniae [8] = assay: Antibacterial activity against Klebsiella pneumoniae assessed as growth inhibition at 0.5 mg/ml after 24 hrs by well diffusion method; format: functional; conditions: read-out: DIZ
Bacillus subtilis [9] = assay: Antibacterial activity against Bacillus subtilis assessed as compound concentration required to complete growth inhibition at 8 hrs by tube dilution method; format: functional
Escherichia coli [10] = assay: Antibacterial activity against Escherichia coli assessed as compound concentration required to complete growth inhibition at 8 hrs by tube dilution method; format: functional
Klebsiella pneumoniae [11] = assay: Antibacterial activity against Klebsiella pneumoniae assessed as compound concentration required to complete growth inhibition at 8 hrs by tube dilution method; format: functional
Bacillus subtilis [12] = assay: Antibacterial activity against Bacillus subtilis assessed as growth inhibition at 0.5 mg/ml after 24 hrs by well diffusion method; format: functional; conditions: read-out: DIZ
COLO 205 [13] = assay: Cytotoxicity against human COLO205 cells assessed as growth inhibition at 200 ug/ml after 24 hrs by MTT assay; format: functional, cell-based
Aspergillus terreus = assay: Antifungal activity against Aspergillus terreus assessed as growth inhibition at 0.5 mg/ml after 48 hrs by well diffusion method; format: functional, organism-based
Aspergillus niger = assay: Antifungal activity against Aspergillus niger assessed as growth inhibition at 0.5 mg/ml after 48 hrs by well diffusion method; format: functional, organism-based
Aspergillus fumigatus = assay: Antifungal activity against Aspergillus fumigatus assessed as growth inhibition at 0.5 mg/ml after 48 hrs by well diffusion method; format: functional, organism-based

| Compound | MIC (Micrococcus luteus [6]) [µg/mL] | MIC (Bacillus subtilis [9]) [µg/mL] | MIC (Escherichia coli [10]) [µg/mL] | MIC (Klebsiella pneumoniae [11]) [µg/mL] | IC50 [1] [µg/mL] | zone of inhibition at 500 µg/mL (Micrococcus luteus [2]) [mm] | IC50 [3] [µg/mL] | IC50 (THP-1) [µg/mL] | zone of inhibition at 500 µg/mL (Escherichia coli [4]) [mm] | IC50 [5] [µg/mL] | IC50 (COLO 205 [7]) [µg/mL] | zone of inhibition at 500 µg/mL (Klebsiella pneumoniae [8]) [mm] | zone of inhibition at 500 µg/mL (Bacillus subtilis [12]) [mm] | growth inhibition (GI) (COLO 205 [13]) | zone of inhibition (Aspergillus terreus) [mm] | zone of inhibition (Aspergillus niger) [mm] | zone of inhibition (Aspergillus fumigatus) [mm] |
| --- | --- | --- | --- | --- | --- | --- | --- | --- | --- | --- | --- | --- | --- | --- | --- | --- | --- |
| C=C(C/C=C/C(C)(C)O)[C@@H]1C[C@@H](OC(C)=O)[C@@]2(C)[C@@H]1[C@@H]1[C@H](C)CC[C@@H]12 (mixture of isomers) | 200 | 200 | 400 | 200 | 39.9 | 15.3 | 47.1 | 44.6 | 13.3 | 48.5 | 64.7 | 16 | 15.3 | – | – | – | – |
| C=C(C)C(O)CCC(=C)[C@@H]1C[C@@H](OC(C)=O)[C@@]2(C)[C@@H]1[C@@H]1[C@H](C)CC[C@@H]12 (mixture of isomers) | 50 | 100 | 100 | 50 | 157 | 16.3 | 104 | 58.1 | 15.7 | 35.1 | 145 | 19 | 13.7 | – | – | – | – |
| C[C@@H]1C[C@@H]([C@H](O)CC2CC(=O)NC(=O)C2)C(=O)[C@@H](C)C1 [CYCLOHEXIMIDE] | – | – | – | – | – | – | – | – | – | – | – | – | – | – | 15.7 | 17.7 | 16.3 |
| COc1cc([C@@H]2c3cc4c(cc3[C@@H](O[C@@H]3O[C@@H]5CO[C@@H](C)O[C@H]5[C@H](O)[C@H]3O)[C@H]3COC(=O)[C@H]23)OCO4)cc(OC)c1O [ETOPOSIDE] | – | – | – | – | 2.12 (≈ 3.6 µM) | – | 4.12 (≈ 7 µM) | 5.02 (≈ 8.53 µM) | – | 2.27 (≈ 3.86 µM) | 1.07 (≈ 1.82 µM) | – | – | – | – | – | – |
| CC(=O)N1CCN(c2ccc(OCC3COC(Cn4ccnc4)(c4ccc(Cl)cc4Cl)O3)cc2)CC1 (centres undefined) [KETOCONAZOLE] | – | – | – | – | – | – | – | – | – | – | – | – | – | – | 20 | 22.7 | 20.7 |
| CN[C@@H]1[C@H](O[C@H]2[C@H](O[C@H]3[C@H](O)[C@@H](O)[C@H](N=C(N)N)[C@@H](O)[C@@H]3N=C(N)N)O[C@@H](C)[C@]2(O)C=O)O[C@@H](CO)[C@H](O)[C@H]1O.CN[C@@H]1[C@H](O[C@H]2[C@H](O[C@H]3[C@H](O)[C@@H](O)[C@H](N=C(N)N)[C@@H](O)[C@@H]3N=C(N)N)O[C@@H](C)[C@]2(O)C=O)O[C@@H](CO)[C@H](O)[C@H]1O.O=S(=O)(O)O.O=S(=O)(O)O.O=S(=O)(O)O [STREPTOMYCIN SULFATE] | 6.25 | 6.25 | 6.25 | 6.25 | – | 28.7 | – | – | 30.3 | – | – | 27.3 | 28.7 | – | – | – | – |

Continued, in another order:

| MIC (Micrococcus luteus [6]) [µg/mL] | MIC (Bacillus subtilis [9]) [µg/mL] | MIC (Escherichia coli [10]) [µg/mL] | MIC (Klebsiella pneumoniae [11]) [µg/mL] | Compound | IC50 [1] [µg/mL] | zone of inhibition at 500 µg/mL (Micrococcus luteus [2]) [mm] | IC50 [3] [µg/mL] | IC50 (THP-1) [µg/mL] | zone of inhibition at 500 µg/mL (Escherichia coli [4]) [mm] | IC50 [5] [µg/mL] | IC50 (COLO 205 [7]) [µg/mL] | zone of inhibition at 500 µg/mL (Klebsiella pneumoniae [8]) [mm] | zone of inhibition at 500 µg/mL (Bacillus subtilis [12]) [mm] | growth inhibition (GI) (COLO 205 [13]) | zone of inhibition (Aspergillus terreus) [mm] | zone of inhibition (Aspergillus niger) [mm] | zone of inhibition (Aspergillus fumigatus) [mm] |
| --- | --- | --- | --- | --- | --- | --- | --- | --- | --- | --- | --- | --- | --- | --- | --- | --- | --- |
| 50 | 50 | 50 | 50 | C=C(C(O)/C=C/C(C)(O)COC(C)=O)[C@@H]1C[C@@H](OC(C)=O)[C@@]2(C)[C@@H]1[C@@H]1[C@H](C)CC[C@@H]12 (mixture of isomers) | 41 | 14.7 | 3.45 | 14.2 | 11.3 | 5.6 | 36.1 | 10.7 | 14.3 | – | – | – | – |
| 200 | 100 | 100 | 200 | C=C(C(O)/C=C/C(C)(O)COC(C)=O)[C@@H]1CC(=O)[C@@]2(C)[C@@H]1[C@@H]1[C@H](C)CC[C@@H]12 (mixture of isomers) | 43.9 | 0 | 58.5 | 52 | 0 | 43.6 | – | 0 | 0 | inactive | – | – | – |
| 400 | 400 | 400 | 400 | C=C(CC(C=C(C)C)OC(C)=O)[C@@H]1C[C@@H](OC(C)=O)[C@@]2(C)[C@@H]1[C@@H]1[C@H](C)CC[C@@H]12 (mixture of isomers) | 84.9 | 12.3 | 29 | 77.8 | 0 | 40.1 | 67.1 | 12.3 | 11.3 | – | – | – | – |
